The values that follow are results of earlier work, collected in US20110030103A1, “LIPOPEPTIDES AND LIPOPEPTIDE SYNTHETASES” (priority 2007, published 2011).

Each structure is given as a SMILES string. *1 amine or outer side, *2 acyl side, *3 side chain or, on linkers, in order; H or OH if unused. Where a SMILES comes first, the peptide text is derived from it. Bridges are numbered along the chain shown (N, C = ends). [ ]: non-standard residue; d: D form. X1 = CC(C)CCCCCCCCC[C@H](CC(=O)[*:1])O[*:2]

This data set concerns bacteria, including both Gram-negative and Gram-positive bacteria. The following applies: minimal antibacterial effects; background statement.

For `CC(C)CCCCCCCCC[C@@H]1CC(=O)N[C@@H](CCC(=O)O)C(=O)N[C@@H](CC(C)C)C(=O)N[C@H](CC(C)C)C(=O)N[C@@H](C(C)C)C(=O)N[C@@H](CC(=O)O)C(=O)N[C@H](CC(C)C)C(=O)N[C@@H](CC(C)C)C(=O)O1` [surfactin] (EL[dL]VD[dL]L; linker N-C via X1), the “minimum inhibitory concentration (MIC)” value was 12 to 50 µg/mL.
